Data: PubChem BioAssay AID248 (DTP/NCI, 2004)
Several values for one entry are separate records, joined by “and”; a condition that tells them apart may be missing. Equal values may be shown once. Toxic doses and inconclusive results are not listed. Cut-off read from the data, not from the text of the source: active = T/C of 150% or more; inactive = T/C below 125%.

Test system: L1210 leukemia ip in BDF1 mice, survival T/C
Experiment: NCI In Vivo Anticancer Drug Screen. Data for tumor model L1210 Leukemia (intraperitoneal) in B6D2F1 (BDF1) mice
Details: endpoint: mean survival time, higher = longer survival
How it was run: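 Tumor was transplanted into mice, which were then dosed with test compound or vehicle alone. Survival was recorded for each group, and the treated figure was expressed relative to the control figure.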

[1] = dose: 75.0 mg/kg/injection, schedule: Q01DX001 (ip), vehicle: saline
[2] = dose: 100.0 mg/kg/injection, schedule: Q04DX002 (ip), vehicle: Klucel (hydroxypropylcellulose) (HPC)
[3] = dose: 200.0 mg/kg/injection, schedule: Q04DX002 (ip), vehicle: Klucel (hydroxypropylcellulose) (HPC)
[4] = dose: 400.0 mg/kg/injection, schedule: Q04DX002 (ip), vehicle: Klucel (hydroxypropylcellulose) (HPC)
[5] = dose: 100.0 mg/kg/injection, schedule: Q01DX001 (ip), vehicle: saline with Tween-80
[6] = dose: 200.0 mg/kg/injection, schedule: Q01DX001 (ip), vehicle: saline with Tween-80
[7] = dose: 400.0 mg/kg/injection, schedule: Q01DX001 (ip), vehicle: saline with Tween-80
[8] = dose: 100.0 mg/kg/injection, schedule: Q01DX001 (ip), vehicle: Klucel (hydroxypropylcellulose) (HPC)
[9] = dose: 100.0 mg/kg/injection, schedule: Q04DX003 (ip), vehicle: Klucel (hydroxypropylcellulose) (HPC)
[10] = dose: 200.0 mg/kg/injection, schedule: Q01DX001 (ip), vehicle: Klucel (hydroxypropylcellulose) (HPC)
[11] = dose: 200.0 mg/kg/injection, schedule: Q04DX003 (ip), vehicle: Klucel (hydroxypropylcellulose) (HPC)
[12] = dose: 400.0 mg/kg/injection, schedule: Q01DX001 (ip), vehicle: Klucel (hydroxypropylcellulose) (HPC)
[13] = dose: 400.0 mg/kg/injection, schedule: Q04DX003 (ip), vehicle: Klucel (hydroxypropylcellulose) (HPC)
[14] = dose: 100.0 mg/kg/injection, schedule: Q01DX001 (ip), vehicle: saline
[15] = dose: 200.0 mg/kg/injection, schedule: Q01DX001 (ip), vehicle: saline
[16] = dose: 400.0 mg/kg/injection, schedule: Q01DX001 (ip), vehicle: saline

Measured: T/C

CC12C(=O)NC(=O)N3CCCN4C(=O)NC(=O)C1(C)C4C32 (stereo not drawn)
inactive: [1] 94 % of control | dose: 150.0 mg/kg/injection, schedule: Q01DX001 (ip), vehicle: saline 97 % of control | dose: 300.0 mg/kg/injection, schedule: Q01DX001 (ip), vehicle: saline 100 % of control

CCCCCCCCC/C=N\N=C(N)N
inactive: dose: 15.0 mg/kg/injection, schedule: Q01DX Z (ip), vehicle: carboxymethylcellulose (CMC) 101 % of control | dose: 30.0 mg/kg/injection, schedule: Q01DX Z (ip), vehicle: carboxymethylcellulose (CMC) 108 % of control | dose: 60.0 mg/kg/injection, schedule: Q01DX Z (ip), vehicle: carboxymethylcellulose (CMC) 97 % of control | dose: 120.0 mg/kg/injection, schedule: Q01DX Z (ip), vehicle: carboxymethylcellulose (CMC) 103 % of control and 104 % of control | dose: 120.0 mg/kg/injection, schedule: Q01DX Z (oral), vehicle: carboxymethylcellulose (CMC) 104 % of control | dose: 240.0 mg/kg/injection, schedule: Q01DX Z (ip), vehicle: carboxymethylcellulose (CMC) 100 % of control | dose: 240.0 mg/kg/injection, schedule: Q01DX Z (oral), vehicle: carboxymethylcellulose (CMC) 104 % of control | dose: 480.0 mg/kg/injection, schedule: Q01DX Z (oral), vehicle: carboxymethylcellulose (CMC) 102 % of control | dose: 960.0 mg/kg/injection, schedule: Q01DX Z (oral), vehicle: carboxymethylcellulose (CMC) 104 % of control

CCCCCCCCCCCCCCCCCC[N+](C)(C)Cc1cc(=O)c(O)co1
inactive: dose: 6.25 mg/kg/injection, schedule: Q01DX009 (ip), vehicle: saline 89 % of control | dose: 12.5 mg/kg/injection, schedule: Q01DX009 (ip), vehicle: saline 106 % of control | dose: 25.0 mg/kg/injection, schedule: Q01DX009 (ip), vehicle: saline 99 % of control

Cc1cccnc1OCC(=O)O
inactive: [2] 101 % of control | [3] 104 % of control | [4] 93 % of control

CCOc1c(C(=O)O)cnc2ccccc12
inactive: [1] 100 % of control

CC(=O)N(C)c1ccc(NC(=S)NC(=O)c2cccc([N+](=O)[O-])c2)cc1
inactive: dose: 25.0 mg/kg/injection, schedule: Q01DX009 (ip), vehicle: saline with Tween-80 97 % of control and 109 % of control | dose: 50.0 mg/kg/injection, schedule: Q01DX009 (ip), vehicle: saline with Tween-80 98 % of control and 108 % of control | [5] 97 % of control | dose: 100.0 mg/kg/injection, schedule: Q04DX002 (ip), vehicle: saline 93 % of control and 101 % of control | [6] 92 % of control | dose: 200.0 mg/kg/injection, schedule: Q04DX002 (ip), vehicle: saline 96 % of control and 97 % of control | [7] 92 % of control | dose: 400.0 mg/kg/injection, schedule: Q01DX009 (ip), vehicle: saline with Tween-80 93 % of control and 105 % of control | dose: 400.0 mg/kg/injection, schedule: Q04DX002 (ip), vehicle: saline 101 % of control and 104 % of control

O=C(Nc1ccc(Cl)cc1)NC1CC1
inactive: dose: 62.5 mg/kg/injection, schedule: Q01DX009 (ip), vehicle: saline with Tween-80 91 % of control | dose: 125.0 mg/kg/injection, schedule: Q01DX009 (ip), vehicle: saline with Tween-80 90 % of control | dose: 250.0 mg/kg/injection, schedule: Q01DX009 (ip), vehicle: saline with Tween-80 95 % of control

O=C(Nc1ccccc1Cl)N(C1CCCCC1)C1CCCCC1
inactive: [2] 103 % of control | [3] 100 % of control | [4] 106 % of control

BrC1c2ccccc2-c2nc3ccccc3cc21 (stereo not drawn)
inactive: dose: 37.5 mg/kg/injection, schedule: Q01DX001 (ip), vehicle: Klucel (hydroxypropylcellulose) (HPC) 103 % of control | dose: 75.0 mg/kg/injection, schedule: Q01DX001 (ip), vehicle: Klucel (hydroxypropylcellulose) (HPC) 97 % of control | dose: 150.0 mg/kg/injection, schedule: Q01DX001 (ip), vehicle: Klucel (hydroxypropylcellulose) (HPC) 101 % of control

CCOC(=O)c1ccc(NC(=S)NC(=O)c2cccc([N+](=O)[O-])c2)cc1
inactive: dose: 50.0 mg/kg/injection, schedule: Q01DX001 (ip), vehicle: saline with Tween-80 88 % of control | [5] 88 % of control | dose: 100.0 mg/kg/injection, schedule: Q01DX009 (ip), vehicle: saline 99 % of control and 86 % of control | dose: 100.0 mg/kg/injection, schedule: Q04DX002 (ip), vehicle: alcohol 93 % of control | dose: 100.0 mg/kg/injection, schedule: Q04DX003 (ip), vehicle: saline with Tween-80 105 % of control | [6] 104 % of control and 87 % of control | dose: 200.0 mg/kg/injection, schedule: Q01DX009 (ip), vehicle: saline 93 % of control and 101 % of control | dose: 200.0 mg/kg/injection, schedule: Q04DX002 (ip), vehicle: alcohol 90 % of control | dose: 200.0 mg/kg/injection, schedule: Q04DX003 (ip), vehicle: saline with Tween-80 97 % of control | [7] 106 % of control | dose: 400.0 mg/kg/injection, schedule: Q04DX002 (ip), vehicle: alcohol 90 % of control | dose: 400.0 mg/kg/injection, schedule: Q04DX003 (ip), vehicle: saline with Tween-80 95 % of control

CCN(C(=S)c1ccc(Cl)cc1)c1cccc(C)c1
inactive: [8] 103 % of control | [9] 94 % of control | [10] 99 % of control | [11] 103 % of control | [12] 94 % of control | [13] 100 % of control

CC(=O)N1Cc2cc3ccccc3nc2C1
inactive: dose: 100.0 mg/kg/injection, schedule: Q04DX003 (ip), vehicle: saline 98 % of control | dose: 200.0 mg/kg/injection, schedule: Q04DX003 (ip), vehicle: saline 107 % of control | dose: 400.0 mg/kg/injection, schedule: Q04DX003 (ip), vehicle: saline 96 % of control

O=[N+]([O-])c1ccc(C(Br)Br)cc1
inactive: [9] 93 % of control | [11] 93 % of control

CC1N=C(c2ccc(N)cc2)OC1C (stereo not drawn)
inactive: [8] 102 % of control | [10] 98 % of control | [12] 100 % of control

O=c1[nH][nH]c(=S)c(=O)[nH]1
inactive: [14] 102 % of control | [15] 98 % of control | [16] 104 % of control

COC1C=CC2OC(c3ccccc3)OCC2O1 (stereo not drawn)
inactive: dose: 100.0 mg/kg/injection, schedule: Q01DX001 (ip), vehicle: other 101 % of control | dose: 200.0 mg/kg/injection, schedule: Q01DX001 (ip), vehicle: other 101 % of control | dose: 400.0 mg/kg/injection, schedule: Q01DX001 (ip), vehicle: other 109 % of control

CCCCCCCCCCNC(C)=O
inactive: dose: 100.0 mg/kg/injection, schedule: Q01DX009 (ip), vehicle: Klucel (hydroxypropylcellulose) (HPC) 104 % of control | [9] 109 % of control | dose: 200.0 mg/kg/injection, schedule: Q01DX009 (ip), vehicle: Klucel (hydroxypropylcellulose) (HPC) 106 % of control | [11] 96 % of control | dose: 400.0 mg/kg/injection, schedule: Q01DX009 (ip), vehicle: Klucel (hydroxypropylcellulose) (HPC) 89 % of control | [13] 102 % of control

Cc1noc(NS(=O)(=O)c2ccc(N=Nc3ccc(N)nc3N)cc2)c1C
inactive: [14] 105 % of control | [15] 98 % of control | [16] 100 % of control
